Measured values as given in PubChem BioAssay AID292 (DTP/NCI, 2004).
Several values for one entry are separate records, joined by “and”; a condition that tells them apart may be missing. Equal entries are not always repeated. Toxic doses and inconclusive results are not listed.

Test system: B6C3F1 mice, ip Sarcoma M5076, median survival T/C
Experiment: NCI In Vivo Anticancer Drug Screen. Data for tumor model Sarcoma M5076 (intraperitoneal) in B6C3F1 mice
Details: endpoint: median survival time, higher = longer survival
How it was run: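 The readout is a ratio of survival in drug-treated animals to survival in animals given vehicle alone, taken in mice bearing a transplanted tumour line.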

[1] = dose: 50.0 mg/kg/injection, schedule: Q04DX004 (ip), vehicle: saline with Tween-80
[2] = dose: 100.0 mg/kg/injection, schedule: Q04DX004 (ip), vehicle: saline with Tween-80
[3] = dose: 200.0 mg/kg/injection, schedule: Q04DX004 (ip), vehicle: saline with Tween-80
[4] = dose: 400.0 mg/kg/injection, schedule: Q04DX004 (ip), vehicle: saline with Tween-80
[5] = dose: 6.25 mg/kg/injection, schedule: Q04DX004 (ip), vehicle: Klucel (hydroxypropylcellulose) (HPC)
[6] = dose: 12.5 mg/kg/injection, schedule: Q04DX004 (ip), vehicle: Klucel (hydroxypropylcellulose) (HPC)
[7] = dose: 25.0 mg/kg/injection, schedule: Q04DX004 (ip), vehicle: Klucel (hydroxypropylcellulose) (HPC)
[8] = dose: 0.5 mg/kg/injection, schedule: Q04DX004 (ip), vehicle: Klucel (hydroxypropylcellulose) (HPC)
[9] = dose: 6.25 mg/kg/injection, schedule: Q04DX004 (ip), vehicle: water
[10] = dose: 12.5 mg/kg/injection, schedule: Q04DX004 (ip), vehicle: water

## CC(C)[C@](O)(C(=O)OCC1=CC[N+]2([O-])CC[C@@H](O)[C@@H]12)[C@H](C)O (some centres undefined)
dose: 75.0 mg/kg/injection, schedule: Q04DX005 (ip), vehicle: saline
  T/C: 111 % of control
dose: 112.5 mg/kg/injection, schedule: Q04DX004 (ip), vehicle: water
  T/C: 122 % of control
dose: 150.0 mg/kg/injection, schedule: Q04DX005 (ip), vehicle: saline
  T/C: 108 % of control
dose: 225.0 mg/kg/injection, schedule: Q04DX004 (ip), vehicle: water
  T/C: 150 % of control
dose: 300.0 mg/kg/injection, schedule: Q04DX005 (ip), vehicle: saline
  T/C: 153 % of control
dose: 450.0 mg/kg/injection, schedule: Q04DX004 (ip), vehicle: water
  T/C: 199 % of control
dose: 600.0 mg/kg/injection, schedule: Q04DX005 (ip), vehicle: saline
  T/C: 230 % of control
dose: 900.0 mg/kg/injection, schedule: Q04DX004 (ip), vehicle: water
  T/C: 208 % of control
dose: 1200.0 mg/kg/injection, schedule: Q04DX005 (ip), vehicle: saline
  T/C: 230 % of control
dose: 1800.0 mg/kg/injection, schedule: Q04DX004 (ip), vehicle: water
  T/C: 291 % of control

## NC(=O)c1[nH]cnc1O
[1]
  T/C: 102 % of control
[2]
  T/C: 101 % of control and 105 % of control
[3]
  T/C: 100 % of control and 105 % of control
[4]
  T/C: 118 % of control

## CN1CCc2c(c3ccccc3c3ccccc23)C1
dose: 75.0 mg/kg/injection, schedule: Q04DX004 (ip), vehicle: Klucel (hydroxypropylcellulose) (HPC)
  T/C: 114 % of control
dose: 150.0 mg/kg/injection, schedule: Q04DX004 (ip), vehicle: Klucel (hydroxypropylcellulose) (HPC)
  T/C: 122 % of control

## COC1CC2C=C(C)/C=C/C=C/C(=O)NC(c3ccccc3)C/C=C/CCC(O)CC(=O)C2=C1O (centres undefined)
dose: 3.12 mg/kg/injection, schedule: Q04DX004 (ip), vehicle: Klucel (hydroxypropylcellulose) (HPC)
  T/C: 112 % of control
[5]
  T/C: 118 % of control
[6]
  T/C: 110 % of control
[7]
  T/C: 123 % of control

## N#CC1C(=O)NC(=O)C(C#N)C1c1ccc(C2C(C#N)C(=O)NC(=O)C2C#N)cc1 (centres undefined)
dose: 50.0 mg/kg/injection, schedule: Q04DX004 (ip), vehicle: Klucel (hydroxypropylcellulose) (HPC)
  T/C: 100 % of control
dose: 100.0 mg/kg/injection, schedule: Q04DX004 (ip), vehicle: Klucel (hydroxypropylcellulose) (HPC)
  T/C: 97 % of control
dose: 200.0 mg/kg/injection, schedule: Q04DX004 (ip), vehicle: Klucel (hydroxypropylcellulose) (HPC)
  T/C: 100 % of control
dose: 400.0 mg/kg/injection, schedule: Q04DX004 (ip), vehicle: Klucel (hydroxypropylcellulose) (HPC)
  T/C: 96 % of control
dose: 800.0 mg/kg/injection, schedule: Q04DX004 (ip), vehicle: Klucel (hydroxypropylcellulose) (HPC)
  T/C: 100 % of control

## COC(=O)C12OCC34C(CC5C(C)C6=CC(=O)OC6=CC5(C)C3C(O)C1O)OC(=O)C(O)C24 (centres undefined)
dose: 0.25 mg/kg/injection, schedule: Q04DX003 (ip), vehicle: Klucel (hydroxypropylcellulose) (HPC)
  T/C: 107 % of control
dose: 0.43 mg/kg/injection, schedule: Q04DX003 (ip), vehicle: Klucel (hydroxypropylcellulose) (HPC)
  T/C: 107 % of control
[8]
  T/C: 111 % of control and 113 % of control
dose: 0.72 mg/kg/injection, schedule: Q04DX003 (ip), vehicle: Klucel (hydroxypropylcellulose) (HPC)
  T/C: 103 % of control
dose: 1.0 mg/kg/injection, schedule: Q04DX004 (ip), vehicle: Klucel (hydroxypropylcellulose) (HPC)
  T/C: 116 % of control and 122 % of control
dose: 1.2 mg/kg/injection, schedule: Q04DX003 (ip), vehicle: Klucel (hydroxypropylcellulose) (HPC)
  T/C: 110 % of control
dose: 2.0 mg/kg/injection, schedule: Q04DX003 (ip), vehicle: Klucel (hydroxypropylcellulose) (HPC)
  T/C: 112 % of control
dose: 2.0 mg/kg/injection, schedule: Q04DX004 (ip), vehicle: Klucel (hydroxypropylcellulose) (HPC)
  T/C: 123 % of control
dose: 4.0 mg/kg/injection, schedule: Q04DX004 (ip), vehicle: Klucel (hydroxypropylcellulose) (HPC)
  T/C: 116 % of control

## CNCCN=c1ccc2c3c1c(O)c1c(O)ccc(=O)c1c3[nH]n2CCNCCO
dose: 0.75 mg/kg/injection, schedule: Q04DX004 (ip), vehicle: water
  T/C: 156 % of control
dose: 1.5 mg/kg/injection, schedule: Q04DX004 (ip), vehicle: water
  T/C: 162 % of control
dose: 3.0 mg/kg/injection, schedule: Q04DX004 (ip), vehicle: water
  T/C: 204 % of control
[9]
  T/C: 245 % of control
[10]
  T/C: 90 % of control

## Nc1n[n+](-c2ccccc2)no1
[9]
  T/C: 111 % of control and 117 % of control
dose: 12.5 mg/kg/injection, schedule: Q01DX009 (ip), vehicle: water
  T/C: 151 % of control
[10]
  T/C: 118 % of control
dose: 25.0 mg/kg/injection, schedule: Q01DX009 (ip), vehicle: water
  T/C: 168 % of control
dose: 50.0 mg/kg/injection, schedule: Q01DX009 (ip), vehicle: water
  T/C: 172 % of control and 235 % of control

## C[CH2][Sn]([Cl])([CH2]C)[c]1cc[c]([Sn]([Cl])([CH2]C)[CH2]C)cc1
dose: 0.06 mg/kg/injection, schedule: Q04DX004 (ip), vehicle: Klucel (hydroxypropylcellulose) (HPC)
  T/C: 102 % of control
dose: 0.12 mg/kg/injection, schedule: Q04DX004 (ip), vehicle: Klucel (hydroxypropylcellulose) (HPC)
  T/C: 89 % of control
dose: 0.25 mg/kg/injection, schedule: Q04DX004 (ip), vehicle: Klucel (hydroxypropylcellulose) (HPC)
  T/C: 91 % of control
[8]
  T/C: 101 % of control
dose: 90.0 micrograms/kg/injection, schedule: Q04DX004 (ip), vehicle: Klucel (hydroxypropylcellulose) (HPC)
  T/C: 106 % of control
dose: 150.0 micrograms/kg/injection, schedule: Q04DX004 (ip), vehicle: Klucel (hydroxypropylcellulose) (HPC)
  T/C: 96 % of control
dose: 250.0 micrograms/kg/injection, schedule: Q04DX004 (ip), vehicle: Klucel (hydroxypropylcellulose) (HPC)
  T/C: 100 % of control
dose: 416.7 micrograms/kg/injection, schedule: Q04DX004 (ip), vehicle: Klucel (hydroxypropylcellulose) (HPC)
  T/C: 98 % of control
dose: 694.5 micrograms/kg/injection, schedule: Q04DX004 (ip), vehicle: Klucel (hydroxypropylcellulose) (HPC)
  T/C: 107 % of control

## O=C1N2CCNc3ccccc3C(c3ccccc3)N1CC2 (centres undefined)
[5]
  T/C: 117 % of control
[6]
  T/C: 103 % of control
[7]
  T/C: 106 % of control

## CCCCCCCCCCCC1C(C#N)C(=O)NC(=O)C1C#N (centres undefined)
dose: 50.0 mg/kg/injection, schedule: Q04DX004 (ip), vehicle: Klucel + Tween-80
  T/C: 104 % of control
dose: 100.0 mg/kg/injection, schedule: Q04DX004 (ip), vehicle: Klucel + Tween-80
  T/C: 93 % of control
dose: 200.0 mg/kg/injection, schedule: Q04DX004 (ip), vehicle: Klucel + Tween-80
  T/C: 96 % of control
dose: 400.0 mg/kg/injection, schedule: Q04DX004 (ip), vehicle: Klucel + Tween-80
  T/C: 93 % of control
dose: 800.0 mg/kg/injection, schedule: Q04DX004 (ip), vehicle: Klucel + Tween-80
  T/C: 93 % of control

## Oc1ccc(/C=N/N=C/c2ccc(O)c(O)c2)cc1O
[1]
  T/C: 98 % of control
[2]
  T/C: 95 % of control
[3]
  T/C: 95 % of control
[4]
  T/C: 93 % of control
dose: 800.0 mg/kg/injection, schedule: Q04DX004 (ip), vehicle: saline with Tween-80
  T/C: 107 % of control

## CC(=O)NCCSSCc1ccccc1CS(=O)O
dose: 25.0 mg/kg/injection, schedule: Q04DX004 (ip), vehicle: suspension in saline
  T/C: 96 % of control
dose: 50.0 mg/kg/injection, schedule: Q04DX004 (ip), vehicle: suspension in saline
  T/C: 100 % of control
dose: 100.0 mg/kg/injection, schedule: Q04DX004 (ip), vehicle: suspension in saline
  T/C: 100 % of control
dose: 200.0 mg/kg/injection, schedule: Q04DX004 (ip), vehicle: suspension in saline
  T/C: 101 % of control
dose: 400.0 mg/kg/injection, schedule: Q04DX004 (ip), vehicle: suspension in saline
  T/C: 99 % of control

## Cc1c(O)c2ccccc2c2c1sc(NCCCN(CCO)CCO)[n+]2C
dose: 7.5 mg/kg/injection, schedule: Q04DX004 (ip), vehicle: saline
  T/C: 93 % of control
dose: 15.0 mg/kg/injection, schedule: Q04DX004 (ip), vehicle: saline
  T/C: 98 % of control
dose: 30.0 mg/kg/injection, schedule: Q04DX004 (ip), vehicle: saline
  T/C: 94 % of control
